Measured values published in PubChem BioAssay (NCI).
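Five concentrations, 48 hours, 96-well plates. GI50: concentration for 50% inhibition of growth. TGI: concentration producing complete growth inhibition.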

Legend:
Assay in all cases: DTP human tumour cell line panel, 48 h
UACC-257 melanoma = test system: UACC-257 melanoma
SF-539 CNS = test system: SF-539 CNS
HCC-2998 colon = test system: HCC-2998 colon
MCF7 breast = test system: MCF7 breast
MOLT-4 leukemia = test system: MOLT-4 leukemia
HOP-62 NSCLC = test system: HOP-62 NSCLC
OVCAR-5 ovarian = test system: OVCAR-5 ovarian
UACC-62 melanoma = test system: UACC-62 melanoma
M14 melanoma = test system: M14 melanoma
ACHN renal = test system: ACHN renal

Row | SMILES | GI50 (UACC-257 melanoma) [µM] | TGI (UACC-257 melanoma) [µM] | GI50 (SF-539 CNS) [µM] | TGI (SF-539 CNS) [µM] | GI50 (HCC-2998 colon) [µM] | TGI (HCC-2998 colon) [µM] | GI50 (MCF7 breast) [µM] | TGI (MCF7 breast) [µM] | GI50 (MOLT-4 leukemia) [µM] | TGI (MOLT-4 leukemia) [µM] | GI50 (HOP-62 NSCLC) [µM] | TGI (HOP-62 NSCLC) [µM] | GI50 (OVCAR-5 ovarian) [µM] | TGI (OVCAR-5 ovarian) [µM] | GI50 (UACC-62 melanoma) [µM] | TGI (UACC-62 melanoma) [µM] | GI50 (M14 melanoma) [µM] | TGI (M14 melanoma) [µM] | GI50 (ACHN renal) [µM] | TGI (ACHN renal) [µM]
1 | Cc1cc2c3ccccc3ccc2[n+]2ccccc12 | 6.17 | 27.5 | 3.47 | 17 | 4.71 | 19.7 | 2.35 | > 38.8 | 4.64 | 28.2 | 2.58 | 11.7 | 30.3 | > 100 | 6 | 20.4 | 6.53 | 22.8 | 29.4 | > 100
2 | NC(CSc1nc2ccccn2c1[N+](=O)[O-])C(=O)O (centres undefined) | – | > 100 | – | > 100 | – | > 100 | – | > 100 | – | – | – | > 100 | – | > 100 | – | > 100 | – | > 100 | – | > 100
3 | O=c1oc2ccc(Cl)cc2c(=O)n1-c1cc(C(F)(F)F)cc(C(F)(F)F)c1 | 0.233 | 1.6 | 0.317 | 1.74 | 0.346 | 3.77 | 0.278 | 13.5 | 0.352 | 2.48 | 0.352 | 4.36 | 0.423 | 17.4 | 0.147 | 0.673 | 0.3 | 1.78 | 0.303 | 10.5
4 | COC(=O)c1ccc2c(c1)C(=O)c1c-2n(CCCN)c(=O)c2cc([N+](=O)[O-])ccc12 | 0.234 | 1.23 | < 0.0196 | 0.21 | < 0.01 | 0.058 | < 0.01 | 0.214 | < 0.01 | 0.833 | < 0.0161 | 0.532 | 0.139 | 0.661 | < 0.0254 | 0.398 | < 0.0222 | 0.46 | < 0.01 | 0.204
5 | ICCC(c1ccccc1)(c1ccccc1)c1ccccc1 | 1.7 | 3.35 | 3.61 | 16.1 | 8.41 | 27.6 | 10.6 | 26.7 | 2.57 | 8.97 | 11.6 | 24 | 13.4 | 27.1 | 2.46 | 5.74 | 1.92 | 3.72 | 12 | 24.8
6 | O=C1OC(C2=CC(=O)c3ccccc3C2=O)C(Cl)=C1Cl (centres undefined) | – | > 100 | – | 72.7 | – | 61.3 | – | 44.8 | – | > 100 | – | > 100 | – | > 100 | – | 39.5 | – | > 100 | – | 33.6
7 | O=C(Nc1ccccc1)NS(=O)(=O)c1ccc(N2N=C3c4ccccc4CC3C2c2ccccn2)cc1 (centres undefined) | 26.6 | 76.6 | 30.6 | 75.7 | 17.3 | 33.3 | 27 | > 100 | 11.6 | > 100 | 20.4 | 45.5 | 26.8 | 97.9 | 17.8 | 37.2 | 24.9 | 51.4 | 23.6 | 68.8
